biological target: T1, MCH R1 (melanine-concentrating hormone receptor-1) (Homo sapiens, UniProt Q99705); assay: Inhibitory effects on MCH R1 binding (Eu-MCH time-resolved fluorescence binding assay); conditions: concentration inhibiting the binding of MCH (Eu-MCH, 2 nM) to MCH R1 by 50% in vitro; TRF readout; test range 1 nM to 10 μM; read-out: IC50
T1 construct: purchased Euroscreen, Gosselies, Belgium
How it was run: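 Receptor membranes were incubated 90 min at room temperature with 2 nM Eu-MCH and test compound (1 nM–10 μM final) in 25 mM HEPES pH 7.4, 5 mM MgCl2, 1 mM CaCl2, 0.5% BSA, then filter-washed. Nonspecific binding was defined with 0.5 μM MCH. Time-resolved fluorescence (ex 340/em 615 nm) gave percent inhibition of specific binding.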

T1 sequence (Q99705 whole entry, species assumed): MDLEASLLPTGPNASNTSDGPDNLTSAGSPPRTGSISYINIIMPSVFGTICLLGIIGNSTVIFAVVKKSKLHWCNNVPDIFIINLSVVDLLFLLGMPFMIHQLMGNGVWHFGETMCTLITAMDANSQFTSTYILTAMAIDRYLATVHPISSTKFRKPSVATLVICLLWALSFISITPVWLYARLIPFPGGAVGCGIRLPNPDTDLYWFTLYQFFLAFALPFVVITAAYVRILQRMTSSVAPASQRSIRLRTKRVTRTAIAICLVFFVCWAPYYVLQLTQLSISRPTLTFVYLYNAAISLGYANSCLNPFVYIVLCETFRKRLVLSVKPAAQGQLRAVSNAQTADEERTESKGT

| IC50 [nM] | SMILES |
| --- | --- |
| 3 | CC(=O)Nc1cccc(C2CCN(CCCn3c(-c4cccnc4)nc4cc([N+](=O)[O-])ccc43)CC2)c1 [Example 117, 5-nitro-2-(pyridin-3-yl)-1-{3-[4-(3-acetamidophenyl)piperidin-1-yl]propyl}-1H-benzimidazole] |
| 20 | CC(=O)Nc1cccc(C2CCN(CCCn3c(-c4ccc(Br)o4)nc4cc(Cl)ccc43)CC2)c1 [Example 118, 5-chloro-2-(5-bromofuran-2-yl)-1-{3-[4-(3-acetamidophenyl)piperidin-1-yl]propyl}-1H-benzimidazole] |
| 249 | COc1ccc2c(c1)nc(-c1ccco1)n2CCCN1CCC(c2cccc(NC(C)=O)c2)CC1 [Example 119, 2-(furan-2-yl)-5-methoxy-1-{3-[4-(3-acetamidophenyl)piperidin-1-yl]propyl}-1H-benzimidazole] |
| 1 | CC(=O)Nc1cccc(C2CCN(CCCn3c(-c4ccsc4)nc4cc(C)ccc43)CC2)c1 [Example 120, 5-methyl-2-(thiophen-3-yl)-1-{3-[4-(3-acetamidophenyl)piperidin-1-yl]propyl}-1H-benzimidazole] |
| 5 | CC(=O)Nc1cccc(C2CCN(CCCn3c(-c4cccn4C)nc4cc(C)c(C)cc43)CC2)c1 [Example 121, 5,6-dimethyl-2-(1-methylpyrrol-2-yl)-1-{3-[4-(3-acetamidophenyl)piperidin-1-yl]propyl}-1H-benzimidazole] |
| 306 | CC(=O)Nc1cccc(C2CCN(CCCn3c(-c4cscn4)nc4ccccc43)CC2)c1 [Example 122, 2-(thiazol-4-yl)-1-{3-[4-(3-acetamidophenyl)piperidin-1-yl]propyl}-1H-benzimidazole] |
| 3 | CC(=O)Nc1cccc(C2CCN(CCCn3c(-c4ocnc4C)nc4ccccc43)CC2)c1 [Example 123, 2-(4-methyloxazol-5-yl)-1-{3-[4-(3-acetamidophenyl)piperidin-1-yl]propyl}-1H-benzimidazole] |
| 2 | CC(=O)Nc1cccc(C2CCN(CCCn3c(Cc4ccccn4)nc4ccccc43)CC2)c1 [Example 125, 2-(pyridin-2-ylmethyl)-1-{3-[4-(3-acetamidophenyl)piperidin-1-yl]propyl}-1H-benzimidazole] |
| 47 | CC(=O)Nc1cccc(C2CCN(CCCn3c(Cc4cccnc4)nc4ccccc43)CC2)c1 [Example 126, 2-(pyridin-3-ylmethyl)-1-{3-[4-(3-acetamidophenyl)piperidin-1-yl]propyl}-1H-benzimidazole] |
| 1 | CC(=O)Nc1cccc(C2CCN(CCCn3c(CCc4cccnc4)nc4ccccc43)CC2)c1 [Example 127, 2-[2-(pyridin-3-yl)ethyl]-1-{3-[4-(3-acetamidophenyl)piperidin-1-yl]propyl}-1H-benzimidazole] |

Source: US8198307B2, “Imidazole derivatives having aryl piperidine substituent, method for preparation thereof and pharmaceutical compositions containing same” (Korea Research Institute of Chemical Technology, priority 2007, dated 2012)
